PubChem BioAssay AID248 (DTP/NCI, 2004)
Several values for one entry are separate records, joined by “and”; a condition that tells them apart may be missing. Equal entries are not always repeated. Inconclusive results and toxic doses are left out.

Tested on: L1210 leukemia ip in BDF1 mice, survival T/C
Experiment: NCI In Vivo Anticancer Drug Screen. Data for tumor model L1210 Leukemia (intraperitoneal) in B6D2F1 (BDF1) mice
Conditions: higher = longer survival
Outline: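 Read-out is survival time, reported as the treated-group measurement over the vehicle-control measurement.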

[1] = endpoint: mean survival time, dose: 25.0 mg/kg/injection, schedule: Q01DX009 (ip), vehicle: saline with Tween-80
[2] = endpoint: mean survival time, dose: 50.0 mg/kg/injection, schedule: Q01DX009 (ip), vehicle: saline with Tween-80
[3] = endpoint: mean survival time, dose: 100.0 mg/kg/injection, schedule: Q04DX003 (ip), vehicle: Klucel (hydroxypropylcellulose) (HPC)
[4] = endpoint: mean survival time, dose: 200.0 mg/kg/injection, schedule: Q04DX003 (ip), vehicle: Klucel (hydroxypropylcellulose) (HPC)
[5] = endpoint: mean survival time, dose: 400.0 mg/kg/injection, schedule: Q04DX003 (ip), vehicle: Klucel (hydroxypropylcellulose) (HPC)
[6] = endpoint: mean survival time, dose: 200.0 mg/kg/injection, schedule: Q01DX001 (ip), vehicle: saline
[7] = endpoint: mean survival time, dose: 400.0 mg/kg/injection, schedule: Q01DX001 (ip), vehicle: saline
[8] = endpoint: mean survival time, dose: 100.0 mg/kg/injection, schedule: Q01DX009 (ip), vehicle: Klucel (hydroxypropylcellulose) (HPC)
[9] = endpoint: mean survival time, dose: 200.0 mg/kg/injection, schedule: Q01DX009 (ip), vehicle: Klucel (hydroxypropylcellulose) (HPC)
[10] = endpoint: mean survival time, dose: 100.0 mg/kg/injection, schedule: Q01DX009 (ip), vehicle: saline with Tween-80
[11] = endpoint: mean survival time, dose: 100.0 mg/kg/injection, schedule: Q01DX001 (ip), vehicle: saline
[12] = endpoint: mean survival time, dose: 400.0 mg/kg/injection, schedule: Q01DX009 (ip), vehicle: Klucel (hydroxypropylcellulose) (HPC)

## CCOC(Cl)CCl (centres undefined)
endpoint: mean survival time, dose: 6.25 mg/kg/injection, schedule: Q01DX009 (ip), vehicle: saline with Tween-80
  T/C: 106 % of control
endpoint: mean survival time, dose: 12.5 mg/kg/injection, schedule: Q01DX001 (ip), vehicle: saline with Tween-80
  T/C: 97 % of control
endpoint: mean survival time, dose: 12.5 mg/kg/injection, schedule: Q01DX009 (ip), vehicle: saline with Tween-80
  T/C: 100 % of control
endpoint: mean survival time, dose: 25.0 mg/kg/injection, schedule: Q01DX001 (ip), vehicle: saline with Tween-80
  T/C: 97 % of control
[1]
  T/C: 108 % of control
endpoint: mean survival time, dose: 50.0 mg/kg/injection, schedule: Q01DX001 (ip), vehicle: saline with Tween-80
  T/C: 93 % of control and 105 % of control
[2]
  T/C: 101 % of control

## CC(=O)N1C=Cc2ccccc2C1C1c2ccccc2C=CN1C(C)=O (centres undefined)
[3]
  T/C: 98 % of control
[4]
  T/C: 96 % of control
[5]
  T/C: 93 % of control

## O=P1(NCCCl)OCCCN1CCCl (centres undefined)
endpoint: mean survival time, dose: 12.5 mg/kg/injection, schedule: Q01DX001 (ip), vehicle: saline
  T/C: 101 % of control
endpoint: mean survival time, dose: 25.0 mg/kg/injection, schedule: Q01DX001 (ip), vehicle: saline
  T/C: 116 % of control and 117 % of control
endpoint: mean survival time, dose: 25.0 mg/kg/injection, schedule: Q01DX009 (ip), vehicle: saline
  T/C: 155 % of control
endpoint: mean survival time, dose: 25.0 mg/kg/injection, schedule: Q07DX003 (ip), vehicle: saline
  T/C: 110 % of control
endpoint: mean survival time, dose: 50.0 mg/kg/injection, schedule: Q01DX001 (ip), vehicle: saline
  T/C: 124 % of control
endpoint: mean survival time, dose: 50.0 mg/kg/injection, schedule: Q01DX009 (ip), vehicle: saline
  T/C: 160 % of control
endpoint: mean survival time, dose: 50.0 mg/kg/injection, schedule: Q01DX009 (ip), vehicle: water
  T/C: 173 % of control
endpoint: mean survival time, dose: 75.0 mg/kg/injection, schedule: Q07DX003 (ip), vehicle: saline
  T/C: 166 % of control
endpoint: mean survival time, dose: 100.0 mg/kg/injection, schedule: Q01DX009 (ip), vehicle: saline
  T/C: 260 % of control
endpoint: mean survival time, dose: 100.0 mg/kg/injection, schedule: Q01DX009 (ip), vehicle: water
  T/C: 185 % of control
endpoint: mean survival time, dose: 100.0 mg/kg/injection, schedule: Q07DX003 (ip), vehicle: saline
  T/C: 216 % of control
endpoint: mean survival time, dose: 125.0 mg/kg/injection, schedule: Q07DX003 (ip), vehicle: saline
  T/C: 206 % of control
endpoint: mean survival time, dose: 150.0 mg/kg/injection, schedule: Q01DX001 (ip), vehicle: saline
  T/C: 249 % of control
[6]
  T/C: 191 % of control and 221 % of control and 298 % of control
endpoint: mean survival time, dose: 200.0 mg/kg/injection, schedule: Q01DX009 (ip), vehicle: saline
  T/C: 167 % of control
[7]
  T/C: 198 % of control
endpoint: mean survival time, dose: 800.0 mg/kg/injection, schedule: Q01DX001 (ip), vehicle: saline
  T/C: 206 % of control
endpoint: median survival time, dose: 65.0 mg/kg/injection, schedule: Q01DX014 (ip), vehicle: water
  T/C: 215 % of control and 216 % of control
endpoint: median survival time, dose: 108.0 mg/kg/injection, schedule: Q01DX001 (ip), vehicle: water
  T/C: 118 % of control and 121 % of control
endpoint: median survival time, dose: 180.0 mg/kg/injection, schedule: Q01DX001 (ip), vehicle: saline
  T/C: 172 % of control and 175 % of control
endpoint: median survival time, dose: 180.0 mg/kg/injection, schedule: Q01DX009 (ip), vehicle: water
  T/C: 291 % of control
endpoint: median survival time, dose: 180.0 mg/kg/injection, schedule: Q01DX014 (ip), vehicle: water
  T/C: 105 % of control
endpoint: median survival time, dose: 180.0 mg/kg/injection, schedule: Q07DX003 (ip), vehicle: water
  T/C: 289 % of control
endpoint: median survival time, dose: 300.0 mg/kg/injection, schedule: Q01DX001 (ip), vehicle: saline
  T/C: 261 % of control and 266 % of control
endpoint: median survival time, dose: 300.0 mg/kg/injection, schedule: Q01DX009 (ip), vehicle: water
  T/C: 187 % of control
endpoint: median survival time, dose: 300.0 mg/kg/injection, schedule: Q01DX014 (ip), vehicle: water
  T/C: 76 % of control
endpoint: median survival time, dose: 300.0 mg/kg/injection, schedule: Q07DX003 (ip), vehicle: water
  T/C: 168 % of control
endpoint: median survival time, dose: 400.0 mg/kg/injection, schedule: Q01DX001 (ip), vehicle: water
  T/C: 272 % of control and 297 % of control
endpoint: median survival time, dose: 500.0 mg/kg/injection, schedule: Q01DX001 (ip), vehicle: saline
  T/C: 44 % of control
endpoint: median survival time, dose: 500.0 mg/kg/injection, schedule: Q01DX009 (ip), vehicle: water
  T/C: 81 % of control
endpoint: median survival time, dose: 600.0 mg/kg/injection, schedule: Q01DX001 (ip), vehicle: water
  T/C: 227 % of control and 255 % of control
endpoint: median survival time, dose: 700.0 mg/kg/injection, schedule: Q01DX001 (ip), vehicle: water
  T/C: 46 % of control
endpoint: median survival time, dose: 800.0 mg/kg/injection, schedule: Q01DX001 (ip), vehicle: water
  T/C: 39 % of control
endpoint: median survival time, dose: 833.0 mg/kg/injection, schedule: Q01DX001 (ip), vehicle: saline
  T/C: 23 % of control
endpoint: median survival time, dose: 833.0 mg/kg/injection, schedule: Q01DX009 (ip), vehicle: water
  T/C: 24 % of control
endpoint: median survival time, dose: 900.0 mg/kg/injection, schedule: Q01DX001 (ip), vehicle: water
  T/C: 25 % of control

## Brc1csc2ncccc12
endpoint: mean survival time, dose: 50.0 mg/kg/injection, schedule: Q01DX009 (ip), vehicle: Klucel (hydroxypropylcellulose) (HPC)
  T/C: 102 % of control
[8]
  T/C: 101 % of control
[3]
  T/C: 97 % of control
[9]
  T/C: 96 % of control
[4]
  T/C: 100 % of control

## Cc1ccc(NC(=O)OCCOc2cc(C)c(Cl)c(C)c2)cc1[N+](=O)[O-]
[2]
  T/C: 87 % of control
[10]
  T/C: 101 % of control
endpoint: mean survival time, dose: 200.0 mg/kg/injection, schedule: Q01DX009 (ip), vehicle: saline with Tween-80
  T/C: 90 % of control

## CCC1(c2ccccc2)C(=O)N(Cl)C(=O)N(Cl)C1=O
[1]
  T/C: 98 % of control
[2]
  T/C: 98 % of control
[10]
  T/C: 93 % of control

## CN(C)S(=O)(=O)c1ccc(N=NN2CCOCC2)cc1
endpoint: mean survival time, dose: 100.0 mg/kg/injection, schedule: Q04DX002 (ip), vehicle: saline with Tween-80
  T/C: 115 % of control
endpoint: mean survival time, dose: 200.0 mg/kg/injection, schedule: Q04DX002 (ip), vehicle: saline with Tween-80
  T/C: 97 % of control
endpoint: mean survival time, dose: 400.0 mg/kg/injection, schedule: Q04DX002 (ip), vehicle: saline with Tween-80
  T/C: 108 % of control

## Cc1cc(C)[c]([Hg][Cl])c(C)c1
endpoint: mean survival time, dose: 6.0 mg/kg/injection, schedule: Q01DX009 (ip), vehicle: saline with Tween-80
  T/C: 100 % of control
endpoint: mean survival time, dose: 6.0 mg/kg/injection, schedule: Q04DX003 (ip), vehicle: saline with Tween-80
  T/C: 94 % of control
endpoint: mean survival time, dose: 12.0 mg/kg/injection, schedule: Q01DX009 (ip), vehicle: saline with Tween-80
  T/C: 87 % of control
endpoint: mean survival time, dose: 12.0 mg/kg/injection, schedule: Q04DX003 (ip), vehicle: saline with Tween-80
  T/C: 103 % of control
[1]
  T/C: 90 % of control
endpoint: mean survival time, dose: 25.0 mg/kg/injection, schedule: Q04DX003 (ip), vehicle: saline with Tween-80
  T/C: 92 % of control

## COc1cc2c(cc1OC)C(Cc1cc(OC)c(OC)cc1[N+](=O)[O-])=NCC2
[11]
  T/C: 100 % of control
[6]
  T/C: 98 % of control
[7]
  T/C: 94 % of control

## C#CCCCCCCCCCC(=O)OC
[8]
  T/C: 102 % of control
[3]
  T/C: 103 % of control
[9]
  T/C: 102 % of control
[4]
  T/C: 95 % of control
[12]
  T/C: 104 % of control
[5]
  T/C: 98 % of control

## Nc1ccc(C(=O)c2ccc(N)cc2)cc1
[8]
  T/C: 98 % of control
endpoint: mean survival time, dose: 100.0 mg/kg/injection, schedule: Q04DX002 (ip), vehicle: Klucel (hydroxypropylcellulose) (HPC)
  T/C: 107 % of control
[9]
  T/C: 120 % of control
endpoint: mean survival time, dose: 200.0 mg/kg/injection, schedule: Q04DX002 (ip), vehicle: Klucel (hydroxypropylcellulose) (HPC)
  T/C: 104 % of control
[12]
  T/C: 106 % of control
endpoint: mean survival time, dose: 400.0 mg/kg/injection, schedule: Q04DX002 (ip), vehicle: Klucel (hydroxypropylcellulose) (HPC)
  T/C: 96 % of control

## CN(C)c1n[nH]c(=O)[nH]c1=O
[11]
  T/C: 91 % of control
[6]
  T/C: 114 % of control
[7]
  T/C: 93 % of control
